As usually defined, the IC50 is the point on the concentration scale where inhibition reaches its midpoint.

Sequence of PRMT5-MEP50 enzyme complex (O14744 2-637): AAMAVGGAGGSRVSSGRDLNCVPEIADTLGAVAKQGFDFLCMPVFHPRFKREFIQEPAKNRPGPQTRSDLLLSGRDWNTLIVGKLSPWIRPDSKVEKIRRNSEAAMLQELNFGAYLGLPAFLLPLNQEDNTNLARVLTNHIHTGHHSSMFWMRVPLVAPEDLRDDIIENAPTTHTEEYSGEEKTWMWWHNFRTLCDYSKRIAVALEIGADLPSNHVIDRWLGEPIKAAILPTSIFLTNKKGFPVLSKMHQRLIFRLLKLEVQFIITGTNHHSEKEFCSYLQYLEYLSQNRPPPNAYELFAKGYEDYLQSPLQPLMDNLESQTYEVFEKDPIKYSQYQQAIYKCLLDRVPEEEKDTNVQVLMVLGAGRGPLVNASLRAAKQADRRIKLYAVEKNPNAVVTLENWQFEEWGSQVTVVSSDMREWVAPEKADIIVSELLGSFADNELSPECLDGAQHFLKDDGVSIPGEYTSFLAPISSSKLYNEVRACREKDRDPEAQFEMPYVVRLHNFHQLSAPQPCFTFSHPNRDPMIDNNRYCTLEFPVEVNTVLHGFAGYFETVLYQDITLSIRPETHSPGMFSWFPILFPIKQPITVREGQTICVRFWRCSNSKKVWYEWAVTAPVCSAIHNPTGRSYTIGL
Sequence of PRMT5-MEP50 enzyme complex (Q9BQA1 2-342 partner): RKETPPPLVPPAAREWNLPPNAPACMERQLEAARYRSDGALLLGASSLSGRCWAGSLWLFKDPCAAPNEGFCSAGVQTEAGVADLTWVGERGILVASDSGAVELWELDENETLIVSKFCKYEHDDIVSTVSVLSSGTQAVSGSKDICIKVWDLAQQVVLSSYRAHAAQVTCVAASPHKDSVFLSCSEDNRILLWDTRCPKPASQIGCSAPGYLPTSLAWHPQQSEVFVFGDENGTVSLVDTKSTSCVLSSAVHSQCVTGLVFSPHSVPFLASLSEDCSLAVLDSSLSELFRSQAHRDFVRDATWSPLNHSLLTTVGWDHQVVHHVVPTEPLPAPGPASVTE

The assay concerns the target PRMT5-MEP50 enzyme complex (Homo sapiens (Human), UniProt O14744). The assay can be described thus: PRMT5 enzyme activity in vitro assay (methylation of histone H4R3, ELISA absorbance at 450 nm). It is filed as biochemical. Conditions: SAM, histone H4 peptide, room temperature 2 hours, 8 points from 10 μM to 0.128 nM. In outline:
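Human PRMT5-MEP50 was prepared at 5 μg/mL with SAM at 2 μM and reacted 2 h at room temperature on plate-coated histone H4 (1-20) peptide. An 8-point 1:5 compound series ran from 10 μM to 0.128 nM. H4R3 methylation was detected by antibody/HRP ELISA at 450 nm to give IC50.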
(ELISA stands for enzyme-linked immunosorbent assay.)
With `CC1(C)CN(C[C@H](O)CN2CCc3ccccc3C2)C(=O)c2ccc(CN3CCC4(COC4)C3)cc2O1` [Example 183, 4-[(2R)-3-(3,4-dihydro-1H-isoquinolin-2-yl)-2-hydroxy-propyl]-2,2-dimethyl-8-(2-oxa-7-azaspiro[3.4]octan-7-ylmethyl)-3H-1,4-benzoxazepin-5-one], the IC50 was 100 to 1000 nM.

The molecule `O=C(c1ccc2c(c1)OCCN(C[C@H](O)CN1CCc3ccccc3C1)C2=O)N1CCC(F)CC1` [Example 184, 4-[(2R)-3-(3,4-dihydro-1H-isoquinolin-2-yl)-2-hydroxy-propyl]-8-(4-fluoropiperidine-1-carbonyl)-2,3-dihydro-1,4-benzoxazepin-5-one] showed a 50% inhibitory concentration (IC50) of 100 to 1000 nM.

Take `O=C(c1ccc2c(c1)OCCN(C[C@H](O)CN1CCc3ccccc3C1)C2=O)N1CCCC(C(F)(F)F)C1` (stereo partly drawn) [Example 185, 4-[(2R)-3-(3,4-dihydro-1H-isoquinolin-2-yl)-2-hydroxy-propyl]-8-[3-(trifluoromethyl)piperidine-1-carbonyl]-2,3-dihydro-1,4-benzoxazepin-5-one]: the concentration for half-maximal inhibition (IC50) lay in the range of 100 to 1000 nM.

Molecule `O=C(c1ccc2c(c1)OCCN(C[C@H](O)CN1CCc3ccccc3C1)C2=O)N1CCC(C(F)(F)F)CC1` [Example 186, 4-[(2R)-3-(3,4-dihydro-1H-isoquinolin-2-yl)-2-hydroxy-propyl]-8-[4-(trifluoromethyl)piperidine-1-carbonyl]-2,3-dihydro-1,4-benzoxazepin-5-one] returned an IC50 of 100 to 1000 nM.

`CC1CN(C(=O)c2ccc3c(c2)OCCN(C[C@H](O)CN2CCc4ccccc4C2)C3=O)CC(C)O1` (stereo partly drawn) [Example 187, 4-[(2R)-3-(3,4-dihydro-1H-isoquinolin-2-yl)-2-hydroxy-propyl]-8-(2,6-dimethylmorpholin-4-carbonyl)-2,3-dihydro-1,4-benzoxazepin-5-one] had a 50% inhibitory concentration (IC50) of 100 to 1000 nM.

`O=C1c2ccc(C(=O)N3CC4CCC3C4)cc2OCCN1C[C@H](O)CN1CCc2ccccc2C1` (stereo partly drawn) [Example 188, 8-(2-azabicyclo[2.2.1]heptane-2-carbonyl)-4-[(2R)-3-(3,4-dihydro-1H-isoquinolin-2-yl)-2-hydroxy-propyl]-2,3-dihydro-1,4-benzoxazepin-5-one] had a half-inhibitory concentration (IC50) of 100 to 1000 nM.

`O=C1c2ccc(C(=O)N3C4CCC3COC4)cc2OCCN1C[C@H](O)CN1CCc2ccccc2C1` [Example 189, 4-[(2R)-3-(3,4-dihydro-1H-isoquinolin-2-yl)-2-hydroxy-propyl]-8-(3-oxa-8-azabicyclo[3.2.1]octan-8-carbonyl)-2,3-dihydro-1,4-benzoxazepin-5-one] returned an IC50 of 100 to 1000 nM.

As for `CC1CN(C(=O)c2ccc3c(c2)OCCN(C[C@H](O)CN2CCc4ccccc4C2)C3=O)CCO1` (stereo partly drawn) [Example 190, 4-[(2R)-3-(3,4-dihydro-1H-isoquinolin-2-yl)-2-hydroxy-propyl]-8-(2-methylmorpholin-4-carbonyl)-2,3-dihydro-1,4-benzoxazepin-5-one], the IC50 lay in the range of 100 to 1000 nM.

On to `CC1COCCN1C(=O)c1ccc2c(c1)OCCN(C[C@H](O)CN1CCc3ccccc3C1)C2=O` (stereo partly drawn) [Example 191, 4-[(2R)-3-(3,4-dihydro-1H-isoquinolin-2-yl)-2-hydroxy-propyl]-8-(3-methylmorpholin-4-carbonyl)-2,3-dihydro-1,4-benzoxazepin-5-one], for which the IC50 was 100 to 1000 nM.

`CC1(C)CN(C[C@H](O)CN2CCc3ccccc3C2)C(=O)c2ccc(CN3CCOCC3)nc2O1` [Example 192, 4-[(2R)-3-(3,4-dihydro-1H-isoquinolin-2-yl)-2-hydroxy-propyl]-2,2-dimethyl-8-(morpholinomethyl)-3H-pyrido[3,2-f][1,4]oxazepin-5-one] yielded an IC50 of 100 to 1000 nM.

`O=C(c1ccc2c(c1)OCCN(C[C@H](O)CN1CCc3ccccc3C1)C2=O)N1CC2CCCC2C1` (stereo partly drawn) [Example 193, 8-(3,3a,4,5,6,6a-hexahydro-1H-cyclopenta[c]pyrrol-2-carbonyl)-4-[(2R)-3-(3,4-dihydro-1H-isoquinolin-2-yl)-2-hydroxy-propyl]-2,3-dihydro-1,4-benzoxazepin-5-one] yielded a half-inhibitory concentration (IC50) of 100 to 1000 nM.

`O=C(c1ccc2c(c1)OCCN(C[C@H](O)CN1CCc3ccccc3C1)C2=O)N1CCCC(F)C1` (stereo partly drawn) [Example 194, 4-[(2R)-3-(3,4-dihydro-1H-isoquinolin-2-yl)-2-hydroxy-propyl]-8-(3-fluoropiperidine-1-carbonyl)-2,3-dihydro-1,4-benzoxazepin-5-one] yielded an IC50 of 100 to 1000 nM.

`O=C(c1ccc2c(c1)OCCN(C[C@H](O)CN1CCc3ccccc3C1)C2=O)N1CCOC(F)(F)C1` [Example 195, 8-(2,2-difluoromorpholin-4-carbonyl)-4-[(2R)-3-(3,4-dihydro-1H-isoquinolin-2-yl)-2-hydroxy-propyl]-2,3-dihydro-1,4-benzoxazepin-5-one] had an IC50 of 100 to 1000 nM.

For the molecule `O=C(c1ccc2c(c1)OCCN(C[C@H](O)CN1CCc3ccccc3C1)C2=O)N1CCC(F)(F)CC1` [Example 196, 8-(4,4-difluoropiperidine-1-carbonyl)-4-[(2R)-3-(3,4-dihydro-1H-isoquinolin-2-yl)-2-hydroxy-propyl]-2,3-dihydro-1,4-benzoxazepin-5-one], the 50% inhibitory concentration (IC50) fell in the range of 100 to 1000 nM.

Consider `CC1(C)CN(C[C@H](O)CN2CCc3ccccc3C2)C(=O)c2ccc(CN3CCCCC3)nc2O1` [Example 197, 4-[(2R)-3-(3,4-dihydro-1H-isoquinolin-2-yl)-2-hydroxy-propyl]-2,2-dimethyl-8-(1-piperidylmethyl)-3H-pyrido[3,2-f][1,4]oxazepin-5-one], for which the IC50 was in the range of 100 to 1000 nM.

For the molecule `CN(C1CCC(Oc2ccc3c(c2)OCCN(C[C@H](O)CN2CCc4ccccc4C2)C3=O)CC1)C1COC1` (stereo partly drawn) [Example 198, 4-[(2R)-3-(3,4-dihydro-1H-isoquinolin-2-yl)-2-hydroxypropyl]-8-[4-[methyl(oxetan-3-yl)amino]cyclohexoxy]-2,3-dihydro-1,4-benzoxazepin-5-one], the IC50 is 1 to 100 nM.

`CN(CCF)C1CCC(Oc2ccc3c(c2)OCCN(C[C@H](O)CN2CCc4ccccc4C2)C3=O)CC1` (stereo partly drawn) [Example 199, 4-[(2R)-3-(3,4-dihydro-1H-isoquinolin-2-yl)-2-hydroxypropyl]-8-[4-[2-fluoroethyl(methyl)amino]cyclohexoxy]-2,3-dihydro-1,4-benzoxazepin-5-one] had a 50% inhibitory concentration (IC50) of 1 to 100 nM.

In turn, `C[C@H]1CN(C[C@H](O)CN2CCc3ccccc3C2)C(=O)c2ccc(OC3CN(CCF)C3)cc2O1` [Example 201, (2S)-4-[(2R)-3-(3,4-dihydro-1H-isoquinolin-2-yl)-2-hydroxy-propyl]-8-[1-(2-fluoroethyl)azetidin-3-yl]oxy-2-methyl-2,3-dihydro-1,4-benzoxazepin-5-one] displayed an IC50 of 100 to 1000 nM.

`C[C@H]1CN(C[C@H](O)CN2CCc3ccccc3C2)C(=O)c2ccc(OC3CCN(CCF)CC3)cc2O1` [Example 202, (2S)-4-[(2R)-3-(3,4-dihydro-1H-isoquinolin-2-yl)-2-hydroxy-propyl]-8-[1-(2-fluoroethyl)-4-piperidyl]oxy-2-methyl-2,3-dihydro-1,4-benzoxazepin-5-one] gave a concentration for half-maximal inhibition (IC50) of 1 to 100 nM.

`CC1(C)CN(C[C@H](O)CN2CCc3ccccc3C2)C(=O)c2ccc(C(=O)N3C4CCC3COC4)cc2O1` [Example 203, 4-[(2R)-3-(3,4-dihydro-1H-isoquinolin-2-yl)-2-hydroxy-propyl]-2,2-dimethyl-8-(3-oxa-8-azabicyclo[3.2.1]octan-8-carbonyl)-3H-1,4-benzoxazepin-5-one]: the half-inhibitory concentration (IC50) fell in the range of 100 to 1000 nM.

As for `CC1(C)CN(C[C@H](O)CN2CCc3ccccc3C2)C(=O)c2ccc(C(=O)N3CC4CC3CO4)cc2O1` (stereo partly drawn) [Example 204, 4-[(2R)-3-(3,4-dihydro-1H-isoquinolin-2-yl)-2-hydroxy-propyl]-2,2-dimethyl-8-(2-oxa-5-azabicyclo[2.2.1]heptan-5-carbonyl)-3H-1,4-benzoxazepin-5-one], the IC50 was 100 to 1000 nM.

As to `CC1COCC(C)N1C(=O)c1ccc2c(c1)OC(C)(C)CN(C[C@H](O)CN1CCc3ccccc3C1)C2=O` (stereo partly drawn) [Example 205, 4-[(2R)-3-(3,4-dihydro-1H-isoquinolin-2-yl)-2-hydroxy-propyl]-8-(3,5-dimethylmorpholin-4-carbonyl)-2,2-dimethyl-3H-1,4-benzoxazepin-5-one], the 50% inhibitory concentration (IC50) was 100 to 1000 nM.

As for `CN1CCC(Oc2ccc3c(c2)OCCN(C[C@H](O)CN2CCc4ccccc4C2)C3=O)C(F)C1` (stereo partly drawn) [Example 206, 4-[(2R)-3-(3,4-dihydro-1H-isoquinolin-2-yl)-2-hydroxy-propyl]-8-[(3-fluoro-1-methyl-4-piperidyl)oxy]-2,3-dihydro-1,4-benzoxazepin-5-one], the 50% inhibitory concentration (IC50) is 100 to 1000 nM.

In turn, `O=C1c2ccc(OC3CCN(CCF)CC3F)cc2OCCN1C[C@H](O)CN1CCc2ccccc2C1` (stereo partly drawn) [Example 207, 4-[(2R)-3-(3,4-dihydro-1H-isoquinolin-2-yl)-2-hydroxy-propyl]-8-[[3-fluoro-1-(2-fluoroethyl)-4-piperidyl]oxy]-2,3-dihydro-1,4-benzoxazepin-5-one] had a 50% inhibitory concentration (IC50) of 100 to 1000 nM.

Molecule `O=C1c2ccc(OC3CCN(CCO)CC3F)cc2OCCN1C[C@H](O)CN1CCc2ccccc2C1` (stereo partly drawn) [Example 208, 4-[(2R)-3-(3,4-dihydro-1H-isoquinolin-2-yl)-2-hydroxy-propyl]-8-[[3-fluoro-1-(2-hydroxyethyl)-4-piperidyl]oxy]-2,3-dihydro-1,4-benzoxazepin-5-one] gave a half-inhibitory concentration (IC50) of 100 to 1000 nM.

For the molecule `CC1(C)CN(C[C@H](O)CN2CCc3ccccc3C2)C(=O)c2ccc(C(=O)N3CCn4cccc4C3)cc2O1` [Example 209, 4-[(2R)-3-(3,4-dihydro-1H-isoquinolin-2-yl)-2-hydroxy-propyl]-8-(3,4-dihydro-1H-pyrrolo[1,2-a]pyrazine-2-carbonyl)-2,2-dimethyl-3H-1,4-benzoxazepin-5-one], the IC50 lay in the range of 100 to 1000 nM.

In the case of `CC1(C)CN(C[C@H](O)CN2CCc3ccccc3C2)C(=O)c2ccc(C(=O)N3CCN4CCCC4C3)cc2O1` (stereo partly drawn) [Example 210, 8-(3,4,6,7,8,8a-hexahydro-1H-pyrrolo[1,2-a]pyrazine-2-carbonyl)-4-[(2R)-3-(3,4-dihydro-1H-isoquinolin-2-yl)-2-hydroxy-propyl]-2,2-dimethyl-3H-1,4-benzoxazepin-5-one], the 50% inhibitory concentration (IC50) fell in the range of 100 to 1000 nM.

Source of the values: patent publication US11111237B2, “Bicyclic compound and use thereof” (SK BIOPHARMACEUTICALS CO., LTD., priority 2019, dated 2021).
